# PMC3320615, “β-Microseminoprotein Endows Post Coital Seminal Plasma with Potent Candidacidal Activity by a Calcium- and pH-Dependent Mechanism” (PLoS Pathogens, 2012)
# Tests used:
# [1] = Liposome leakage (carboxyfluorescein release); assay type: biochemical; details: pH 6.0, % ± SD of leakage with Triton X-100, CF fluorescence 520 nm, 37°C, at least triplicate, DOPC/cholesterol liposomes
# Procedure: Dry lipid films were prepared by dissolving dioleoylphosphatidylcholine (1,2-dioleoyl-sn-Glycero-3-phoshocholine, >99% purity, Avanti Polar Lipids, Alabaster, AL) (60 mol%) (DOPC) and either ergosterol or cholesterol (both >99% purity, Sigma) (40 mol%) in chlorofom, and then removing the solvent by evaporation under vacuum overnight. Subsequently, buffer (10 mM Tris, pH 7.4) was added together with 0.1 M carboxyfluorescein (CF) (Sigma, St Louis, MO). After hydration, the lipid mixture was subjected to eight freeze-thaw cycles consisting of freezing in liquid nitrogen and heating to 60°C. Unilamellar liposomes of about Ø140 nm were generated by multiple extrusions through polycarbonate filters (pore size 100 nm) mounted in a LipoFastminiextruder (Avestin, Ottawa, Canada) at 22°C. Untrapped CF was then removed by two gel filtrations (Sephadex G-50) at 22°C, with Tris buffer as eluent. CF release was determined by monitoring the emitted fluorescence at 520 nm from liposome dispersions (10 mM lipid in 10 mM Tris). An absolute leakage scale was obtained by disrupting the liposomes at the end of the experiment through addition of 0.8 mM Triton X100 (Sigma, St Louis, MO), causing 100% release and dequenching of CF. Although calcein is frequently used for pH-dependent leakage studies, the high charge of this dye has been noted to influence its leakage behavior in the presence of highly cationic peptides. Instead, therefore, CF was used as a leakage marker at both pH 6.0 and 7.4, avoiding pH-dependent fluorescence effects through neutralization prior to probing the limiting leakage in case of pH 6.0 leakage. Throughout, a SPEX-fluorolog 1650 0.22-m double spectrometer (SPEX Industries, Edison, NJ) was used for the liposome leakage assay. Measurements were performed in at least triplicate at 37°C.
# [2] = system: Candida albicans ATCC 90028; experiment: CFU assay with C. albicans; assay type: cell-based; details: for Estimate (difference between means of log values): control - treatment
# From the text: Candida albicans strains: ATCC 90028, CAF-1-2, SC5814, BM4f35II68, vaginal clinical isolates from Dept. of Clincal Microbiology, Skåne University Hospital, SO_303369 and SO_503471. Candida parapsilosis strains: ATCC 90018, BD1800, BD17837, and BM24/68/09. Candida glabrata strains: ATCC 90030, clinical isolates from Dept. of Clincal Microbiology, Skåne University Hospital, SO_3336, SO_3400 and SO_503413. All strains were inoculated from frozen culture and grown in Yeast extract-Peptone-Dextrose (YPD) (Sigma) and on Sabourand Dextrose Broth (SAB) (Difco) plates at 30°C with 5% (v/v) CO2. If not otherwise stated, ATCC 90028 was used for candidacidal experiments.
# Candida albicans was grown over night, washed, and resuspended in 10 mM Tris, 5 mM glucose, pH 7.4 or pH 4. Approximately 4×10^3 to 10^4 CFU of C. albicans were incubated with the test substance in low or neutral pH buffer for 4 h at 37°C. After incubation, the suspension was diluted and plated. Colonies were counted after two days incubation of the plates at 30°C. Bacteria from overnight cultures were inoculated in fresh medium and grown for 3 h, washed in 10 mM Tris, 5 mM glucose pH 7.4. Approximately 8×10^4 CFU were incubated with sample in 10 mM Tris, 5 mM glucose pH 7.4 or pH 4 for 1 h at 37°C, diluted, plated and incubated over night at 37°C and the colonies counted.
# Statistical analysis was performed using SAS 9.2 software (SAS Institute, Cary, NC). Colony counts were log transformed. In order to choose the statistical method, interactions between the Treatment and Experiment were investigated. Treatments were screened by doing pair wise comparisons of each treatment to a control. Statistical tests used for the comparisons included MIXED procedure and LSMEANS statement. All tests where P-value<.05 were considered to indicate statistical significance. P-values were not adjusted for the multiple comparisons.
# “Estimate” is the estimate of the difference between means of log values of treatment 1 and treatment 2
sequence,measurement,setting,value
"RIFKKEDCKYI [MSP66–76, eleven residues at the very tip of the loop (residue 66–76)]",Liposome leakage,[1]; +EDTA,0%
same,Liposome leakage,[1]; without EDTA,0%
same,Estimate (difference between means of log values),"[2]; 50 µM + 50 µM EDTA, pH 7.4, + 50 µM calcium chloride, experiment 1",0.4123
same,Estimate (difference between means of log values),"[2]; 50 µM + 50 µM EDTA, pH 7.4, + 50 µM calcium chloride, experiment 2",-0.3545
same,Estimate (difference between means of log values),"[2]; 50 µM + 50 µM EDTA, pH 7.4, + 50 µM calcium chloride, experiment 3",-0.7827
same,Estimate (difference between means of log values),"[2]; 50 µM + 50 µM EDTA, pH 7.4, + 50 µM calcium chloride, experiment 4",0.2633
same,Estimate (difference between means of log values),"[2]; 50 µM + 50 µM EDTA, pH 7.4, + 50 µM calcium chloride, experiment 5",0.02251
same,Estimate (difference between means of log values),"[2]; 50 µM + 50 µM EDTA, pH 7.4, + 75 µM calcium chloride, experiment 1",0.2228
same,Estimate (difference between means of log values),"[2]; 50 µM + 50 µM EDTA, pH 7.4, + 75 µM calcium chloride, experiment 2",-0.4921
same,Estimate (difference between means of log values),"[2]; 50 µM + 50 µM EDTA, pH 7.4, + 75 µM calcium chloride, experiment 3",-0.1876
same,Estimate (difference between means of log values),"[2]; 50 µM + 50 µM EDTA, pH 7.4, + 75 µM calcium chloride, experiment 4",-0.2469
same,Estimate (difference between means of log values),"[2]; 50 µM + 50 µM EDTA, pH 7.4, + 75 µM calcium chloride, experiment 5",-0.2312
same,Estimate (difference between means of log values),"[2]; 50 µM + 50 µM EDTA, pH 7.4, + 100 µM calcium chloride, experiment 1",0.07455
same,Estimate (difference between means of log values),"[2]; 50 µM + 50 µM EDTA, pH 7.4, + 100 µM calcium chloride, experiment 2",-0.1459
same,Estimate (difference between means of log values),"[2]; 50 µM + 50 µM EDTA, pH 7.4, + 100 µM calcium chloride, experiment 3",-0.4793
same,Estimate (difference between means of log values),"[2]; 50 µM + 50 µM EDTA, pH 7.4, + 100 µM calcium chloride, experiment 4",-0.1979
same,Estimate (difference between means of log values),"[2]; 50 µM + 50 µM EDTA, pH 7.4, + 100 µM calcium chloride, experiment 5",-0.3209
same,Estimate (difference between means of log values),"[2]; 50 µM + 50 µM EDTA, pH 7.4, + 200 µM calcium chloride, experiment 1",0.4296
same,Estimate (difference between means of log values),"[2]; 50 µM + 50 µM EDTA, pH 7.4, + 200 µM calcium chloride, experiment 2",-0.6341
same,Estimate (difference between means of log values),"[2]; 50 µM + 50 µM EDTA, pH 7.4, + 200 µM calcium chloride, experiment 3",-0.7050
same,Estimate (difference between means of log values),"[2]; 50 µM + 50 µM EDTA, pH 7.4, + 200 µM calcium chloride, experiment 4",-0.2560
same,Estimate (difference between means of log values),"[2]; 50 µM + 50 µM EDTA, pH 7.4, + 200 µM calcium chloride, experiment 5",0.04894
same,Estimate (difference between means of log values),"[2]; 50 µM + 50 µM EDTA, pH 7.4, no calcium, experiment 1",5.2769
same,Estimate (difference between means of log values),"[2]; 50 µM + 50 µM EDTA, pH 7.4, no calcium, experiment 2",4.2266
same,Estimate (difference between means of log values),"[2]; 50 µM + 50 µM EDTA, pH 7.4, no calcium, experiment 3",2.8351
same,Estimate (difference between means of log values),"[2]; 50 µM + 50 µM EDTA, pH 7.4, no calcium, experiment 4",4.2317
same,Estimate (difference between means of log values),"[2]; 50 µM + 50 µM EDTA, pH 7.4, no calcium, experiment 5",5.0824
same,Estimate (difference between means of log values),"[2]; 50 µM, no EDTA, pH 4, + 50 µM calcium chloride, experiment 1",2.5872
same,Estimate (difference between means of log values),"[2]; 50 µM, no EDTA, pH 4, + 50 µM calcium chloride, experiment 2",2.7886
same,Estimate (difference between means of log values),"[2]; 50 µM, no EDTA, pH 4, + 50 µM calcium chloride, experiment 3",1.3256
same,Estimate (difference between means of log values),"[2]; 50 µM, no EDTA, pH 4, + 50 µM calcium chloride, experiment 4",2.0744
same,Estimate (difference between means of log values),"[2]; 50 µM, no EDTA, pH 4, + 50 µM calcium chloride, experiment 5",1.7552
same,Estimate (difference between means of log values),"[2]; 50 µM, no EDTA, pH 4, + 75 µM calcium chloride, experiment 1",2.5170
same,Estimate (difference between means of log values),"[2]; 50 µM, no EDTA, pH 4, + 75 µM calcium chloride, experiment 2",1.9220
same,Estimate (difference between means of log values),"[2]; 50 µM, no EDTA, pH 4, + 75 µM calcium chloride, experiment 3",-0.3426
same,Estimate (difference between means of log values),"[2]; 50 µM, no EDTA, pH 4, + 75 µM calcium chloride, experiment 4",1.5746
same,Estimate (difference between means of log values),"[2]; 50 µM, no EDTA, pH 4, + 75 µM calcium chloride, experiment 5",1.0684
same,Estimate (difference between means of log values),"[2]; 50 µM, no EDTA, pH 4, + 100 µM calcium chloride, experiment 1",0.6973
same,Estimate (difference between means of log values),"[2]; 50 µM, no EDTA, pH 4, + 100 µM calcium chloride, experiment 2",1.1772
same,Estimate (difference between means of log values),"[2]; 50 µM, no EDTA, pH 4, + 100 µM calcium chloride, experiment 3",0.01412
same,Estimate (difference between means of log values),"[2]; 50 µM, no EDTA, pH 4, + 100 µM calcium chloride, experiment 4",1.0688
same,Estimate (difference between means of log values),"[2]; 50 µM, no EDTA, pH 4, + 100 µM calcium chloride, experiment 5",0.1005
same,Estimate (difference between means of log values),"[2]; 50 µM, no EDTA, pH 4, + 200 µM calcium chloride, experiment 1",1.0661
same,Estimate (difference between means of log values),"[2]; 50 µM, no EDTA, pH 4, + 200 µM calcium chloride, experiment 2",0.6082
same,Estimate (difference between means of log values),"[2]; 50 µM, no EDTA, pH 4, + 200 µM calcium chloride, experiment 3",-0.8572
same,Estimate (difference between means of log values),"[2]; 50 µM, no EDTA, pH 4, + 200 µM calcium chloride, experiment 4",0.6184
same,Estimate (difference between means of log values),"[2]; 50 µM, no EDTA, pH 4, + 200 µM calcium chloride, experiment 5",-1.1924
same,Estimate (difference between means of log values),"[2]; 50 µM, no EDTA, pH 4, no calcium, experiment 1",5.4425
same,Estimate (difference between means of log values),"[2]; 50 µM, no EDTA, pH 4, no calcium, experiment 2",4.7863
same,Estimate (difference between means of log values),"[2]; 50 µM, no EDTA, pH 4, no calcium, experiment 3",3.5454
same,Estimate (difference between means of log values),"[2]; 50 µM, no EDTA, pH 4, no calcium, experiment 4",4.0909
same,Estimate (difference between means of log values),"[2]; 50 µM, no EDTA, pH 4, no calcium, experiment 5",3.8004
same,Estimate (difference between means of log values),"[2]; 140 µM + 0.5 mM calcium, pH 4, experiment 1",1.0371
same,Estimate (difference between means of log values),"[2]; 140 µM + 0.5 mM calcium, pH 4, experiment 2",0.7970
same,Estimate (difference between means of log values),"[2]; 140 µM + 0.5 mM calcium, pH 4, experiment 3",-0.5619
same,Estimate (difference between means of log values),"[2]; 140 µM + 0.5 mM calcium, pH 4, experiment 4",0.4135
same,Estimate (difference between means of log values),"[2]; 140 µM + 0.5 mM magnesium, pH 4, experiment 1",5.4081
same,Estimate (difference between means of log values),"[2]; 140 µM + 0.5 mM magnesium, pH 4, experiment 2",4.1263
same,Estimate (difference between means of log values),"[2]; 140 µM + 0.5 mM magnesium, pH 4, experiment 3",2.8985
same,Estimate (difference between means of log values),"[2]; 140 µM + 0.5 mM magnesium, pH 4, experiment 4",5.0596
same,Estimate (difference between means of log values),"[2]; 140 µM, pH 4, experiment 1",5.5432
same,Estimate (difference between means of log values),"[2]; 140 µM, pH 4, experiment 2",4.1263
same,Estimate (difference between means of log values),"[2]; 140 µM, pH 4, experiment 3",2.8985
same,Estimate (difference between means of log values),"[2]; 140 µM, pH 4, experiment 4",4.7326
same,Calcium concentration that completely inhibited the antifungal activity,[2]; neutral pH (MSP66–76 with equimolar EDTA),50 µM
